# Assay results taken from patent US20030207830A1, “Mutant NDP kinases for antiviral nucleotide analog activation and therapeutic uses thereof” (priority 2002, published 2003).
# pKd: −log10 of the molar value.
# Legend:
# [1] = target: T1, Dictyostelium discoideum NDP kinase (Dd-NDPK), wild type (Dictyostelium discoideum, UniProt P22887); test: Pre-steady-state phosphotransfer, fluorescence stopped-flow; format: biochemical; details: catalytic efficiency of phosphotransfer, wt
# T1 construct: made in house
# [2] = target: T2, Dictyostelium discoideum NDP kinase inactive variant EI (H122G-F64W) (Dictyostelium discoideum, UniProt P22887, F64W/H122G); test: biochemical; format: binding
# T2 construct: made in house
# Procedure: (§1) The binding constants were determined at equilibrium by recording the increase in fluorescence (Schneider, 2000).
# (§2) Analog binding affinity was measured using a variant of Dd-NDPK (EI) as described (Schneider, 2000). […] The mutation N119S was inserted in EI in order to measure the nucleotide affinity by fluorescence titration.
# (§3) Altered bases as compared to the wild type sequence are underlined in bold. Sequences were checked by automatic sequencing. The mutant EI-N119S was obtained by mutation of the previously described F64W-H122G mutated NDP kinase (here called EI) (Schneider 2000).
# [3] = target: T3, Dictyostelium discoideum NDP kinase inactive variant EI-N119S (H122G-F64W-N119S) (Dictyostelium discoideum, UniProt P22887, F64W/H122G/N119S); test: biochemical; format: binding; details: for increase of affinity by Ser (N119S): relative KD, EI versus EI-N119S
# T3 construct: made in house
# Procedure: as §1, §2, §3
# [4] = target: T4, human NDP kinase A (NDPK-A, nm23-H1), wild type (Homo sapiens, UniProt P15531); test: Pre-steady-state phosphotransfer, fluorescence stopped-flow; format: biochemical; details: catalytic efficiency of phosphotransfer, NDPK-A, pre-steady state
# T4 construct: made in house
# Procedure: FIG. 3 depicts the catalytic efficiency of NDPK-A and mutants for nucleoside analogs. The rates of phosphorylation of pure recombinant NDP kinases (1 μM) were measured at the pre-steady state in a fluorescence stopped-flow with d4T-TP (10 to 80 μM). The catalytic efficiency (expressed in M^−1s^−1) was determined from the variation of the rate as a function of analog as shown in FIG. 2 (▾, NDPK-A, ♦ L55H, ● N115S, ▪ L55H-N115S).
# The activity assays were performed at the pre-steady state level.
# Wild type human NDPK-A and the mutants were expressed and purified according to Schneider et al., 2000, Mol Pharm. Recombinant wild type and mutant Dd-NDPK were obtained as described (Schneid, 1998a), except for N119Y NDP kinase which was partially purified by Q sepharose FF chromatography. Each protein was characterized by […] electrophoresis. The concentration of 17 kDa subunits of the enzyme was either determined by Bradford assay ([…]) or using an absorbance coefficient of ΔA^280=1.249 for a 1 mg/mL solution of human wild type and N115S NDPK-A, and =0.55 for wild type and mutant N119S, N119T Dd-NDP kinases, respectively.
# As the diphosphate form of analogs were not always available, the triphosphate analogs were used to study phosphate transfer in reaction as in Scheme I. Experiments were performed with an Hi-Tech DX2 microvolume stopped-flow reaction (Schneider, 1998) at Aexc=296 nm (for Ado derivatives) or […] (for other nucleotides), 2 mm excitation slit and a 320 nm cutoff filter at the emission. After mixing NDPK (1 μM) and NTP or an analogTP (10-500 μM), the intrinsic protein fluorescence was recorded for 10-200 sec. In each experiment, 400 pairs of data were recorded, and the data from 3-4 identical experiments were averaged and fitted to a number of non-linear analytical equations using the software provided by Hi-Tech.
# (§4) The data were analyzed using the reaction scheme: [drawing 1]
# In both the forward and the reverse reactions, the product concentration remains very low, thus the product binding can be neglected, and the observed single step could be attributed to the phosphotransfer (Schneider, 1998). The rate of this observed single step is: [formula]
# (§5) and reaches a limiting value (k+2) at NTP saturation. […] Therefore, catalytic efficiencies of phosphorylation (CEphos=k+2/(k−1/k+1)=k+2/KS) were measured, which are equivalent to second order constants and allow a reliable comparison of a variety of NDP kinase substrates.
# [5] = target: T5, human NDP kinase A (NDPK-A) variant L55H (Homo sapiens, UniProt P15531, L55H); test: as above; format: biochemical
# T5 construct: made in house; host or cells: E. coli
# [6] = target: T6, Dictyostelium NDP Kinase wt (Dictyostelium discoideum, UniProt P22887); test: Pre-steady-state fluorescence stopped-flow phosphotransfer from nucleoside triphosphates, wild type Dd-NDPK; format: biochemical; details: average of three determinations
# T6 construct: made in house
# Procedure: as §1
# After mixing NDPK (1 μM) and NTP or an analogTP (10-500 μM), the intrinsic protein fluorescence was recorded for 10-200 sec. In each experiment, 400 pairs of data were recorded, and the data from 3-4 identical experiments were averaged and fitted to a number of non-linear analytical equations using the software provided by Hi-Tech.
# as §4
# The rate of this observed single step is: [formula]
# as §5
# T3 sequence (P22887 whole entry F64W/N119S/H122G): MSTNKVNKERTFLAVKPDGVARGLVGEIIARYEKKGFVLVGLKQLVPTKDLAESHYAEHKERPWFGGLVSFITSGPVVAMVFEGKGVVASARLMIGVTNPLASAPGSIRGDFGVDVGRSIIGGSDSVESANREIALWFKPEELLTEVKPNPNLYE
# T1 sequence (P22887 whole entry): as the sequence (P22887 whole entry F64W/N119S/H122G) above, with W64F, S119N, G122H counted along it
# T2 sequence (P22887 whole entry F64W/H122G): as the sequence (P22887 whole entry F64W/N119S/H122G) above, with S119N counted along it
# T5 sequence (P15531 whole entry L55H): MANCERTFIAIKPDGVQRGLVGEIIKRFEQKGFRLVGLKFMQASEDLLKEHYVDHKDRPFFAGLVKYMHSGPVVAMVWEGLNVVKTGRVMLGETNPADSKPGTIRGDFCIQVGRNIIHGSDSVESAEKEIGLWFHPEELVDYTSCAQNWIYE
# T4 sequence (P15531 whole entry): as the sequence (P15531 whole entry L55H) above, with H55L counted along it
# T6 sequence (P22887 whole entry): as the sequence (P22887 whole entry F64W/N119S/H122G) above, with W64F, S119N, G122H counted along it
Structure (SMILES),k2/Ks [1] [M⁻¹ s⁻¹],pKd [2],pKd [3],increase of affinity by Ser (N119S) [3] [fold],k2/Ks [4] [M⁻¹ s⁻¹],"k2/Ks ([5]; catalytic efficiency of phosphotransfer, L55H, pre-steady state) [M⁻¹ s⁻¹]","Specificity change (R) ([5]; ratio of catalytic efficiencies analog vs natural nucleotide, mutant vs wild type)",k2/Ks wt (catalytic efficiency of phosphotransfer) [6] [M⁻¹ s⁻¹]
Cc1cn([C@H]2C[C@H](N=[N+]=[N-])[C@@H](COP(=O)(O)OP(=O)(O)OP(=O)(O)O)O2)c(=O)[nH]c1=O [AZT-TP],270,4.52,5.66,15,75,930,(8),
"Nc1nc2c(ncn2[C@H]2CC[C@@H](COP(=O)(O)OP(=O)(O)OP(=O)(O)O)O2)c(=O)[nH]1 [ddGTP, dideoxy-GTP]",2300,5.46,5.70,2,190,,,2300
